Source: patent US10300042B2, “Apremilast for the treatment of a liver disease or a liver function abnormality” (Celgene Corporation, priority 2014, dated 2019)

Columns and labels:
TNF-α = test: Inhibition of TNF-α production in a mouse model; format: in vivo
From the text: The test methods were as described in WO 03/080049; Muller et al., J. Med. Chem., 1996, 39:3238; and Muller et al., Bioorg. Med. Chem. Lett., 1999, 9:1625-30.

PDE4 = PDE4 enzyme inhibition (enzyme purified from U937 human monocytic cells); format: biochemical; conditions: 1 μM cAMP, 45 min at 30° C.
Description: Phosphodiesterase 4 enzyme was purified from U937 human monocytic cells by gel filtration chromatography, and phosphodiesterase reactions were carried out as previously described. See Muller et al., Bioorg. Med. Chem. Lett., 1998, 8(19): 2669-2674. Briefly, reactions were carried out in 96-well deep-well plates in 50 mM Tris HCl pH 7.5, 5 mM MgCl2, 1 μM cyclic adenosine monophosphate (cAMP), plus 10 nM [3H]-cAMP for 45 min at 30° C. The reactions were terminated by boiling, treated with 1 mg/ml snake venom, and separated using AG-1X8 ion exchange resin (BioRad). Reactions consumed less than 15% of available substrate.

PDE1 = PDE1 enzyme assay; format: biochemical; conditions: at 10 μM
Description: (§1) PDE1, 2, 3 and 5 enzyme assays were prepared as described by Hidaka and Asano. Biochem. Biophys. Acta., 1976, 429:485; see also Nicholsen et al., Trends Pharmaco. Sci., 1991, 12:19. The PDE6 enzyme assay was prepared according to Baehr et al., J. Biol. Chem., 1979, 254:11669 and Gillespie et al., Mol. Pharm., 1989, 36: 773. The PDE7 enzyme assay was prepared according to Bloom and Beavo. Proc. Natl. Acad. Sci. USA, 1996, 93:14188-92.

PDE2 = PDE2 (Homo sapiens, UniProt O00408); test: PDE2 enzyme assay; format: biochemical
Description: as §1

PDE3 = PDE3 enzyme assay; format: biochemical; conditions: at 10 μM
Description: as §1

PDE5 = PDE5 (Homo sapiens, UniProt O76074); test: PDE5 enzyme assay; format: biochemical
Description: as §1

Alanine Aminotransferase = test: ALT levels in PALACE 1, 2, and 3 clinical studies; format: in vivo, human
From the text: Apremilast was studied in Phase 3 trials in both psoriatic arthritis and psoriasis patient populations and a Phase 2 trial in rheumatoid arthritis patients on background methotrexate. […] The improvement in mild baseline liver function test abnormalities has been observed with apremilast daily use without any prescribed changes in physical activity, social or dietary habits. The majority of the patient populations in both the psoriatic arthritis and psoriasis studies were overweight with the mean BMI for subjects greater than or equal to 30, more than half were consuming alcoholic beverages regularly, approximately 60% were taking methotrexate at an average dose of […], and 70% were using non-steroidal anti-inflammatory drugs (NSAIDs). […] During the course of the study, there was observed a higher proportion of subjects in the apremilast treatment groups (both 20 mg BID and 30 mg BID) with normal LFTs (i.e. normal levels of ALT and AST) at subsequent placebo-controlled study visits at week 4, week 16, and week 24 (See Tables 1 to 10 from PALACE 1, 2, and 3 studies).

[1] = system: Aspartate Aminotransferase; test: AST levels in PSOR-008 and PSOR-009 (plaque psoriasis); format: in vivo, human; conditions: for AST High, % of patients / AST Low, % of patients / AST Normal, % of patients: Week 16, 30 mg BID
Description: Apremilast was studied in Phase 3 trials in patients with moderate to severe plaque psoriasis. […] The improvement in mild baseline liver function test abnormalities has been observed with apremilast daily use without any prescribed changes in physical activity, social or dietary habits. During the course of the study, there was observed a higher proportion of subjects in the apremilast treatment group (30 mg BID) with normal LFTs (i.e. normal levels of ALT and AST) at subsequent placebo-controlled study visits at week 16. See Tables 11 to 16 from PSOR-008 and PSOR-009 studies.

[2] = system: patients with moderate to severe plaque psoriasis; test: Pruritus in ESTEEM 1; format: in vivo, human; conditions: Week 16, 30 mg BID
Description: (§2) Patients were randomized with Apremilast in an amount of 30 mg twice per day or placebo for the first 16 weeks, and from Weeks 16 to 32, all patients received Apremilast in an amount of 30 mg twice per day.

[3] = system: patients with moderate to severe plaque psoriasis; test: Pruritus in ESTEEM 2; format: in vivo, human; conditions: Week 16, 30 mg BID
Description: as §2

[4] = Baseline High, Week 24, 20 mg BID
[5] = Baseline High, Week 24, 30 mg BID
[6] = Baseline Normal, Week 24, 20 mg BID
[7] = Baseline Normal, Week 24, 30 mg BID
[8] = Baseline Total, Week 24, 20 mg BID
[9] = Baseline Total, Week 24, 30 mg BID
[10] = 30 BID, end of treatment (week 16)

Sequence of PDE2 (O00408 whole entry): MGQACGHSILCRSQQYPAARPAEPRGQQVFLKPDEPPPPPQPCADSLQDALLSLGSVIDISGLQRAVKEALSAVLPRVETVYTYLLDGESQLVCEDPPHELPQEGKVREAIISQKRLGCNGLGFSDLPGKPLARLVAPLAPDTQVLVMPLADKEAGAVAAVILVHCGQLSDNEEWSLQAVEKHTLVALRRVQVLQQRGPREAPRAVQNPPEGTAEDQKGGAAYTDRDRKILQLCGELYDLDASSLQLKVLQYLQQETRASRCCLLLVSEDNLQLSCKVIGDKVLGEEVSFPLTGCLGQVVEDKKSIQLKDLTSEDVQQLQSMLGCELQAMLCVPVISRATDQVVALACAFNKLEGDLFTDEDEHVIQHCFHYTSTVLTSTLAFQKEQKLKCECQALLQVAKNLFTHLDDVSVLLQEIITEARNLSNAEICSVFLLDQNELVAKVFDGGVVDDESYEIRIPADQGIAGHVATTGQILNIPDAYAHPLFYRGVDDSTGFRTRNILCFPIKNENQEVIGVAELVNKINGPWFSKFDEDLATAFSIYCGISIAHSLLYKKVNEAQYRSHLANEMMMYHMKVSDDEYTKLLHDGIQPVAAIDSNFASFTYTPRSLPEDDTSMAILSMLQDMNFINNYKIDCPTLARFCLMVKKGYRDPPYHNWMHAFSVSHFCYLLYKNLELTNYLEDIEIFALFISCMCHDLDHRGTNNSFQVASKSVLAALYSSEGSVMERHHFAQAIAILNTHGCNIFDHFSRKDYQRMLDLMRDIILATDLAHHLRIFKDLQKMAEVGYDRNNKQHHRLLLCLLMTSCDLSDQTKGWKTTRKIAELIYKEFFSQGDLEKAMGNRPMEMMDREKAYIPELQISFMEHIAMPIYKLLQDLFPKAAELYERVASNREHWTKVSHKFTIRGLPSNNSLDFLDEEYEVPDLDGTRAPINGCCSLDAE

CCOc1cc([C@@H](CS(C)(=O)=O)N2C(=O)c3cccc(NC(C)=O)c3C2=O)ccc1OC [Apremilast, (+)-2-[1-(3-ethoxy-4-methoxyphenyl)-2-methylsulfonylethyl]-4-acetylaminoisoindoline-1,3-dione]
EC50, TNF-α production (TNF-α): 0.05 mg/kg | IC50 (PDE4): 73.5 nM | % inhibition PDE1 (PDE1): 23% | inhibition at 10 µM (PDE2): 6% | % inhibition PDE3 (PDE3): 20% | inhibition at 10 µM (PDE5): 3% | ALT High to Normal, percent of patients (Alanine Aminotransferase; 20 BID, end of treatment): 55.3% | ALT Net Benefit (Alanine Aminotransferase; 20 BID, end of treatment): 40.6% | ALT Normal to High, percent of patients (Alanine Aminotransferase; 20 BID, end of treatment): 4.5% | ALT High to Normal, Difference between Placebo and APR 30 BID (Alanine Aminotransferase; 30 BID, end of treatment): 44.4% | ALT High to Normal, percent of patients (Alanine Aminotransferase; 30 BID, end of treatment): 74.4% | ALT Net Benefit (Alanine Aminotransferase; 30 BID, end of treatment): 51.8% | ALT Net Benefit, Difference between Placebo and APR 30 BID (Alanine Aminotransferase; 30 BID, end of treatment): 36.8% | ALT Normal to High, Difference between Placebo and APR 30 BID (Alanine Aminotransferase; 30 BID, end of treatment): −2.8% | ALT Normal to High, percent of patients (Alanine Aminotransferase; 30 BID, end of treatment): 4.4% | ALT High, % of patients (Alanine Aminotransferase; [4]): 44.7% | ALT Low, % of patients (Alanine Aminotransferase; [4]): 0.0% | ALT Normal, % of patients (Alanine Aminotransferase; [4]): 55.3% | ALT High, % of patients (Alanine Aminotransferase; [5]): 25.6% | ALT Low, % of patients (Alanine Aminotransferase; [5]): 0.0% | ALT Normal, % of patients (Alanine Aminotransferase; [5]): 74.4% | ALT High, % of patients (Alanine Aminotransferase; [6]): 4.5% | ALT Low, % of patients (Alanine Aminotransferase; [6]): 0.0% | ALT Normal, % of patients (Alanine Aminotransferase; [6]): 95.5% | ALT High, % of patients (Alanine Aminotransferase; [7]): 4.4% | ALT Low, % of patients (Alanine Aminotransferase; [7]): 0.0% | ALT Normal, % of patients (Alanine Aminotransferase; [7]): 95.6% | ALT High, % of patients (Alanine Aminotransferase; [8]): 8.9% | ALT Low, % of patients (Alanine Aminotransferase; [8]): 0.0% | ALT Normal, % of patients (Alanine Aminotransferase; [8]): 91.1% | ALT High, % of patients (Alanine Aminotransferase; [9]): 6.3% | ALT Low, % of patients (Alanine Aminotransferase; [9]): 0.0% | ALT Normal, % of patients (Alanine Aminotransferase; [9]): 93.7% | Baseline High ALT: High % (Alanine Aminotransferase; Week 4, 20 mg BID): 54.2% | Baseline High ALT: Normal % (Alanine Aminotransferase; Week 4, 20 mg BID): 45.8% | Baseline High ALT: Normal % difference from Placebo (Alanine Aminotransferase; Week 4, 20 mg BID): 8.7% | Baseline High ALT: High % (Alanine Aminotransferase; Week 4, 30 mg BID): 41.1% | Baseline High ALT: Normal % (Alanine Aminotransferase; Week 4, 30 mg BID): 58.9% | Baseline High ALT: Normal % difference from Placebo (Alanine Aminotransferase; Week 4, 30 mg BID): 21.8% | Baseline High ALT: High % (Alanine Aminotransferase; Week 16, 20 mg BID): 36.8% | Baseline High ALT: Normal % (Alanine Aminotransferase; Week 16, 20 mg BID): 63.2% | Baseline High ALT: Normal % difference from Placebo (Alanine Aminotransferase; Week 16, 20 mg BID): 12.4% | Baseline High ALT: High % (Alanine Aminotransferase; Week 16, 30 mg BID): 32.7% | Baseline High ALT: Normal % (Alanine Aminotransferase; Week 16, 30 mg BID): 67.3% | Baseline High ALT: Normal % difference from Placebo (Alanine Aminotransferase; Week 16, 30 mg BID): 16.5% | Baseline High ALT: High % (Alanine Aminotransferase; Week 24, 20 mg BID): 45.1% | Baseline High ALT: Normal % (Alanine Aminotransferase; Week 24, 20 mg BID): 54.9% | Baseline High ALT: Normal % difference from Placebo (Alanine Aminotransferase; Week 24, 20 mg BID): 14.9% | Baseline High ALT: High % (Alanine Aminotransferase; Week 24, 30 mg BID): 23.8% | Baseline High ALT: Normal % (Alanine Aminotransferase; Week 24, 30 mg BID): 76.2% | Baseline High ALT: Normal % difference from Placebo (Alanine Aminotransferase; Week 24, 30 mg BID): 36.2% | AST High to Normal, percent of patients [1, 10]: 60.3% | AST Net Benefit [1, 10]: 46.3% | AST Normal to High, percent of patients [1, 10]: 2.8% | AST High to Normal, Difference (APR 30 BID vs Placebo) ([1]; 30 BID, week 16): 17.9% | AST Net Benefit, Difference (APR 30 BID vs Placebo) ([1]; 30 BID, week 16): 12.2% | AST Normal to High, Difference (APR 30 BID vs Placebo) ([1]; 30 BID, week 16): 0.3% | AST High to Normal, Difference (APR 30 BID vs Placebo) ([1]; 30 BID, week 16, listed as APR): 17.9% | AST High, % of patients ([1]; Baseline High): 39.7% | AST Low, % of patients ([1]; Baseline High): 0.0% | AST Normal, % of patients ([1]; Baseline High): 60.3% | AST High, % of patients ([1]; Baseline Normal): 2.8% | AST Low, % of patients ([1]; Baseline Normal): 0.0% | AST Normal, % of patients ([1]; Baseline Normal): 97.2% | AST High, % of patients ([1]; Baseline Total): 5.9% | AST Low, % of patients ([1]; Baseline Total): 0.0% | AST Normal, % of patients ([1]; Baseline Total): 94.1% | Change in Pruritus Visual Analog Scale (mm ± SD) [2]: −31.5 (±32.43) mm | Change in Pruritus Visual Analog Scale (mm ± SD) [3]: −33.5 (±35.46) mm
